Laboratory results reported in patent publication US10835533B2, “1 -((3S,4R)-4-(3-fluorophenyl)-1-(2-methoxyethyl)pyrrolidin-3-yl)-3-(4-methyl-3-(2-methylpyrimidin-5-yl)-1-phenyl-1H-pyrazol-5-yl)urea as a TrkA kinase inhibitor” (Array BioPharma Inc., priority 2014, dated 2020).

How the values were obtained:
Experiment in all cases: KinaseProfiler kinase profiling
Type in all cases: biochemical
Conditions in all cases: 10 μM, ATP near Km
[1] = target: T1, Fes (Homo sapiens, UniProt P07332)
T1 construct: purchased Millipore, Inc. (KinaseProfiler service)
Experimental: (§1) Compound 1 was tested for off-target kinase activity at a concentration of 10 μM by Millipore, Inc. in their KinaseProfiler™ service against all the kinases available in their full kinase panel. Compound 1 was run in duplicate at a concentration of ATP near the Km for each individual kinase according to Millipore's specifications. Data are reported as percent of control (POC) and are the average of the two replicates.

[2] = target: T2, IR Activated (Homo sapiens, UniProt P06213)
T2 construct: purchased Millipore, Inc. (KinaseProfiler service)
Experimental: as §1

[3] = target: T3, CK1gamma1 (Homo sapiens, UniProt Q9HCP0)
T3 construct: purchased Millipore, Inc. (KinaseProfiler service)
Experimental: as §1

[4] = target: T4, MELK (Homo sapiens, UniProt Q14680)
T4 construct: purchased Millipore, Inc. (KinaseProfiler service)
Experimental: as §1

[5] = target: T5, Fer (Homo sapiens, UniProt P16591)
T5 construct: purchased Millipore, Inc. (KinaseProfiler service)
Experimental: as §1

[6] = target: T6, DYRK2 (Homo sapiens, UniProt Q92630)
T6 construct: purchased Millipore, Inc. (KinaseProfiler service)
Experimental: as §1

[7] = target: T7, EphA5 (Homo sapiens, UniProt P54756)
T7 construct: purchased Millipore, Inc. (KinaseProfiler service)
Experimental: as §1

[8] = target: T8, p38beta (Homo sapiens, UniProt Q15759)
T8 construct: purchased Millipore, Inc. (KinaseProfiler service)
Experimental: as §1

[9] = target: T9, CDK5/p25 (Homo sapiens, UniProt Q00535)
T9 construct: purchased Millipore, Inc. (KinaseProfiler service)
Experimental: as §1

[10] = target: T10, MuSK (Homo sapiens, UniProt O15146)
T10 construct: purchased Millipore, Inc. (KinaseProfiler service)
Experimental: as §1

[11] = target: T11, CDK7/cyclinH/MAT1 (Homo sapiens, UniProt P50613)
T11 construct: purchased Millipore, Inc. (KinaseProfiler service)
Experimental: as §1

[12] = target: T12, BLK (Homo sapiens, UniProt P51451)
T12 construct: purchased Millipore, Inc. (KinaseProfiler service)
Experimental: as §1

[13] = target: T13, PKCeta (Homo sapiens, UniProt P24723)
T13 construct: purchased Millipore, Inc. (KinaseProfiler service)
Experimental: as §1

[14] = target: T14, Pim-3 (Homo sapiens, UniProt Q86V86)
T14 construct: purchased Millipore, Inc. (KinaseProfiler service)
Experimental: as §1

[15] = target: T15, ALK4 (Homo sapiens, UniProt P36896)
T15 construct: purchased Millipore, Inc. (KinaseProfiler service)
Experimental: as §1

[16] = target: T16, EphB2 (Homo sapiens, UniProt P29323)
T16 construct: purchased Millipore, Inc. (KinaseProfiler service)
Experimental: as §1

[17] = target: T17, PKCtheta (Homo sapiens, UniProt Q04759)
T17 construct: purchased Millipore, Inc. (KinaseProfiler service)
Experimental: as §1

[18] = target: T18, EphA8 (Homo sapiens, UniProt P29322)
T18 construct: purchased Millipore, Inc. (KinaseProfiler service)
Experimental: as §1

[19] = target: T19, LOK (Homo sapiens, UniProt O94804)
T19 construct: purchased Millipore, Inc. (KinaseProfiler service)
Experimental: as §1

[20] = target: T20, PAK5 (Homo sapiens, UniProt Q9P286)
T20 construct: purchased Millipore, Inc. (KinaseProfiler service)
Experimental: as §1

[21] = target: T21, LIMK1 (Homo sapiens, UniProt P53667)
T21 construct: purchased Millipore, Inc. (KinaseProfiler service)
Experimental: as §1

[22] = target: T22, Yes (Homo sapiens, UniProt P07947)
T22 construct: purchased Millipore, Inc. (KinaseProfiler service)
Experimental: as §1

[23] = target: T23, AKT1 (Homo sapiens, UniProt P31749)
T23 construct: purchased Millipore, Inc. (KinaseProfiler service)
Experimental: as §1

[24] = target: T24, CDK6/cyclinD3 (Homo sapiens, UniProt Q00534)
T24 construct: purchased Millipore, Inc. (KinaseProfiler service)
Experimental: as §1

[25] = target: T25, ErbB4 (Homo sapiens, UniProt Q15303)
T25 construct: purchased Millipore, Inc. (KinaseProfiler service)
Experimental: as §1

[26] = target: T26, SRPK1 (Homo sapiens, UniProt Q96SB4)
T26 construct: purchased Millipore, Inc. (KinaseProfiler service)
Experimental: as §1

[27] = target: T27, CDK2/cyclinE (Homo sapiens, UniProt P24941)
T27 construct: purchased Millipore, Inc. (KinaseProfiler service)
Experimental: as §1

[28] = target: T28, ROCK-II (Homo sapiens, UniProt O75116)
T28 construct: purchased Millipore, Inc. (KinaseProfiler service)
Experimental: as §1

[29] = target: T29, Rsk1 (Homo sapiens, UniProt Q15418)
T29 construct: purchased Millipore, Inc. (KinaseProfiler service)
Experimental: as §1

[30] = target: T30, HIPK2 (Homo sapiens, UniProt Q9H2X6)
T30 construct: purchased Millipore, Inc. (KinaseProfiler service)
Experimental: as §1

[31] = target: T31, IGF-1R Activated (Homo sapiens, UniProt P08069)
T31 construct: purchased Millipore, Inc. (KinaseProfiler service)
Experimental: as §1

[32] = target: T32, p38alpha (Homo sapiens, UniProt Q16539)
T32 construct: purchased Millipore, Inc. (KinaseProfiler service)
Experimental: as §1

[33] = target: T33, Mer (Homo sapiens, UniProt Q12866)
T33 construct: purchased Millipore, Inc. (KinaseProfiler service)
Experimental: as §1

[34] = target: T34, MAPKAP-K2 (Homo sapiens, UniProt P49137)
T34 construct: purchased Millipore, Inc. (KinaseProfiler service)
Experimental: as §1

[35] = target: T35, mTOR (Homo sapiens, UniProt P42345)
T35 construct: purchased Millipore, Inc. (KinaseProfiler service)
Experimental: as §1

[36] = target: T36, PKCalpha (Homo sapiens, UniProt P17252)
T36 construct: purchased Millipore, Inc. (KinaseProfiler service)
Experimental: as §1

[37] = target: T37, PTK5 (Homo sapiens, UniProt P42685)
T37 construct: purchased Millipore, Inc. (KinaseProfiler service)
Experimental: as §1

[38] = target: T38, PKCiota (Homo sapiens, UniProt P41743)
T38 construct: purchased Millipore, Inc. (KinaseProfiler service)
Experimental: as §1

[39] = target: T39, ULK2 (Homo sapiens, UniProt Q8IYT8)
T39 construct: purchased Millipore, Inc. (KinaseProfiler service)
Experimental: as §1

[40] = target: T40, TrkA (Homo sapiens, UniProt P04629)
T40 construct: purchased Millipore, Inc. (KinaseProfiler service)
Experimental: as §1

[41] = target: T41, MRCKbeta (Homo sapiens, UniProt Q9Y5S2)
T41 construct: purchased Millipore, Inc. (KinaseProfiler service)
Experimental: as §1

T5 sequence (P16591 whole entry): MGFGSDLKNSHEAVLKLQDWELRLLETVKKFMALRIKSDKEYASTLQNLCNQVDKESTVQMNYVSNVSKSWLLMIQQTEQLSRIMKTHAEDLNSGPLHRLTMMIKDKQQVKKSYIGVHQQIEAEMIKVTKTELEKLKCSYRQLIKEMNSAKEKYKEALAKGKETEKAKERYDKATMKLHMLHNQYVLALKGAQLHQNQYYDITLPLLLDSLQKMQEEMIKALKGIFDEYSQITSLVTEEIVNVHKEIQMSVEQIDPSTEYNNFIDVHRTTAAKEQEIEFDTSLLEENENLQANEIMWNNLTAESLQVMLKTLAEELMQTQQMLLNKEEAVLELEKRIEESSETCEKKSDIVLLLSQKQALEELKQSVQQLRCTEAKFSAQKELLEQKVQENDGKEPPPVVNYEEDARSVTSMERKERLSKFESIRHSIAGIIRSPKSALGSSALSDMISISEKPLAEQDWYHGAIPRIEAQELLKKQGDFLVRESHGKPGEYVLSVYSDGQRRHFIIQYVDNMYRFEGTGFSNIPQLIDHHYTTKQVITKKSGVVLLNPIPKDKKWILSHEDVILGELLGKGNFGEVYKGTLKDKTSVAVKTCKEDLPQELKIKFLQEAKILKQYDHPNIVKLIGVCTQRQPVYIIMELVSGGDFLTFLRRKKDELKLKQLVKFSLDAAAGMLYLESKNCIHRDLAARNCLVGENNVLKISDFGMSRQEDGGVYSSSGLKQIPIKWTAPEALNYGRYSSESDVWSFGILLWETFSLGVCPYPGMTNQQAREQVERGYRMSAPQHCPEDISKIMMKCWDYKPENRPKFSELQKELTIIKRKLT
T23 sequence (P31749 whole entry): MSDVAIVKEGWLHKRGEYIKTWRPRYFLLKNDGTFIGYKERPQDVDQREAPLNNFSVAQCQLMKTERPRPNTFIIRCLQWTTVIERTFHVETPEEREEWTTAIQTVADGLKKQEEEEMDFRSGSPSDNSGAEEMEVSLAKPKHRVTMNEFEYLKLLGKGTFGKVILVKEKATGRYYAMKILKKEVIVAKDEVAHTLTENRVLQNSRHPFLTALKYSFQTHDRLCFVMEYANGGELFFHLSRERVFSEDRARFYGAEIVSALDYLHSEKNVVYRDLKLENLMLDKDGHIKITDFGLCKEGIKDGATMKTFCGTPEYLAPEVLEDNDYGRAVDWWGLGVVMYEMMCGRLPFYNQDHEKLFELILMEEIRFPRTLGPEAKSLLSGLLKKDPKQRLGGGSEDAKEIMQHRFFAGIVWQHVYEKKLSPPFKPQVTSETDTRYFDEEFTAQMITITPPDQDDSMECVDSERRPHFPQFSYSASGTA
T19 sequence (O94804 whole entry): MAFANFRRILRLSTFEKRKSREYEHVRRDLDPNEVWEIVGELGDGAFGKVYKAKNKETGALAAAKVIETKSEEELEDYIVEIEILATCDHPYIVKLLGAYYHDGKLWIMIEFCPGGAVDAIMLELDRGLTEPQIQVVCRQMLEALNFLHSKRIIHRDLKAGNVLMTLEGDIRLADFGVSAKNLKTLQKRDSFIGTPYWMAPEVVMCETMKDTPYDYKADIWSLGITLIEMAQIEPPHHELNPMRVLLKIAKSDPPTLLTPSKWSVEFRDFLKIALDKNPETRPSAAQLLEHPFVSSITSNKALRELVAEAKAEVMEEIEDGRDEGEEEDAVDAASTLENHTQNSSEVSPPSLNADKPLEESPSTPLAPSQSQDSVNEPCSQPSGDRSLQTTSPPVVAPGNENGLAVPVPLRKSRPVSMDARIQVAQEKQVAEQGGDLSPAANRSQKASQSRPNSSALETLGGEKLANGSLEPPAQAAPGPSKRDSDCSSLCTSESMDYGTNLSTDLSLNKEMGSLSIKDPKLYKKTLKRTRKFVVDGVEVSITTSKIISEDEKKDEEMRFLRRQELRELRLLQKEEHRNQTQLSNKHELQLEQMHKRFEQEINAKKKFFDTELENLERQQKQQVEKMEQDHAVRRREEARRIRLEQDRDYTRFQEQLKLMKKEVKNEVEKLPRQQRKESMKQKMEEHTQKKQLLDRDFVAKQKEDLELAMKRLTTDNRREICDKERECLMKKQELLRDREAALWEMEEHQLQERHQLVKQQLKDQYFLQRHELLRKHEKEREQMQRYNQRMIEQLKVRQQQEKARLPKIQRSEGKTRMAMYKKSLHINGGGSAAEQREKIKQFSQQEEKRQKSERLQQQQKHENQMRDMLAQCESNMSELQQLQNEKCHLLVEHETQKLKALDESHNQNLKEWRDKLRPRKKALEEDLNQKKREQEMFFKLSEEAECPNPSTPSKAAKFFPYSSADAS
T37 sequence (P42685 whole entry): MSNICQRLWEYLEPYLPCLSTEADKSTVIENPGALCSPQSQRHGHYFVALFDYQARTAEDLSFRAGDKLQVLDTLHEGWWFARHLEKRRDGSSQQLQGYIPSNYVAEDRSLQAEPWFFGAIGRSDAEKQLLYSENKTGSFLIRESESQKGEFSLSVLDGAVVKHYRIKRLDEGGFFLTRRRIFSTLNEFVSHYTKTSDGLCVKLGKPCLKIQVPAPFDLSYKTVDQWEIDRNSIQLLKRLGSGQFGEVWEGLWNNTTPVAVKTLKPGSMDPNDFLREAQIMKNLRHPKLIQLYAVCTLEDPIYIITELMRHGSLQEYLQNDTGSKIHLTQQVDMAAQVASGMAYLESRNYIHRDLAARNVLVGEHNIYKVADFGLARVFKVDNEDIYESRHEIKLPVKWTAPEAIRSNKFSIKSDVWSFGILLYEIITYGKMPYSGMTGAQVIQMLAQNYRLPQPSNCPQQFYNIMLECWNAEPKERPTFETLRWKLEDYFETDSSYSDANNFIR
T2 sequence (P06213 1005-1310 limits assumed): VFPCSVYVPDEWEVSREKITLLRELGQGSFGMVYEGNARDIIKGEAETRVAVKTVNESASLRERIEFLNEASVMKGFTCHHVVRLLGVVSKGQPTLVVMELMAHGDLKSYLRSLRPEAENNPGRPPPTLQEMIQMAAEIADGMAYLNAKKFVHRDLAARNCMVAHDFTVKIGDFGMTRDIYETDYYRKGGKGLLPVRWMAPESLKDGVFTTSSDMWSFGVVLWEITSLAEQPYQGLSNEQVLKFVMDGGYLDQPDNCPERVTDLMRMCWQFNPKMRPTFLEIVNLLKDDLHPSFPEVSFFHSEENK
T7 sequence (P54756 25-1037): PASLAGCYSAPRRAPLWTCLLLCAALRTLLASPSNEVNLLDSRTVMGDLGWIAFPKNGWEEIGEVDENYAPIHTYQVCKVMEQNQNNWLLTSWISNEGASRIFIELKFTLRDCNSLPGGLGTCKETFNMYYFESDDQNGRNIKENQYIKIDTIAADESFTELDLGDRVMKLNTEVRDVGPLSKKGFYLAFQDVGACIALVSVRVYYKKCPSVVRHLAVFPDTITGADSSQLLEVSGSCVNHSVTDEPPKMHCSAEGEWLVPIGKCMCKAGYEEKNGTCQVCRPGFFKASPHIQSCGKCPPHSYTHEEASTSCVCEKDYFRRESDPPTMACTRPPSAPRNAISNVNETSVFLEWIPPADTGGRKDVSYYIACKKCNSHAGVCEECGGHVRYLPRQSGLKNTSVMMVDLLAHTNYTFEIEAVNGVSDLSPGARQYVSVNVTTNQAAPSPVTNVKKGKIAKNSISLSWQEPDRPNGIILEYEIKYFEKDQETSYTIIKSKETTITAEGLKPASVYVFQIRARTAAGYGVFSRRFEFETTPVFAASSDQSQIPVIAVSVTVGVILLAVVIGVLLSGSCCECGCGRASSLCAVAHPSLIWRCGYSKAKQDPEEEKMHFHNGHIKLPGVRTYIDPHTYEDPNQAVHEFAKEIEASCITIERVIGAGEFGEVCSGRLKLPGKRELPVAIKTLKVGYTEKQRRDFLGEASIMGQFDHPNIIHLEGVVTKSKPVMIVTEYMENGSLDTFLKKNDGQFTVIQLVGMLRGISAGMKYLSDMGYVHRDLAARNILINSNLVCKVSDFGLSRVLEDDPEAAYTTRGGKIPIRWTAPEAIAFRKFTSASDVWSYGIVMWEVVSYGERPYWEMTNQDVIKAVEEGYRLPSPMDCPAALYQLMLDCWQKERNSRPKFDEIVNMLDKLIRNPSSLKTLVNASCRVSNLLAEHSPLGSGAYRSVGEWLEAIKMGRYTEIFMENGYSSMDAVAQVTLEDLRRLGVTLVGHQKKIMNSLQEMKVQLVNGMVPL
T22 sequence (P07947 whole entry): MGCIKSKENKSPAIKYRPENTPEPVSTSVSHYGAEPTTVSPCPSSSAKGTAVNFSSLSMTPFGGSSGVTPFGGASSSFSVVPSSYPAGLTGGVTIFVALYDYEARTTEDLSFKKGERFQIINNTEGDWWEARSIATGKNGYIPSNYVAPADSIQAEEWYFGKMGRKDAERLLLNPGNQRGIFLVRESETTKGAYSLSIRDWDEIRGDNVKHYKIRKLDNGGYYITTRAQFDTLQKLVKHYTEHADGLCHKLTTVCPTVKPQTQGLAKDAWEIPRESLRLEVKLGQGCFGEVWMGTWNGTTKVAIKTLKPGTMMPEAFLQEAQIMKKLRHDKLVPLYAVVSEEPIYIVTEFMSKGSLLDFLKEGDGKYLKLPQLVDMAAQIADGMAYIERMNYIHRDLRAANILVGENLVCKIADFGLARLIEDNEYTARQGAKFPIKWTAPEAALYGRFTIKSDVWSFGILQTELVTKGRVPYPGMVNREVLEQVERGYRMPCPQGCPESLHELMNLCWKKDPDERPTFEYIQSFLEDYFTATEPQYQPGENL
T31 sequence (P08069 959-1367 limits assumed): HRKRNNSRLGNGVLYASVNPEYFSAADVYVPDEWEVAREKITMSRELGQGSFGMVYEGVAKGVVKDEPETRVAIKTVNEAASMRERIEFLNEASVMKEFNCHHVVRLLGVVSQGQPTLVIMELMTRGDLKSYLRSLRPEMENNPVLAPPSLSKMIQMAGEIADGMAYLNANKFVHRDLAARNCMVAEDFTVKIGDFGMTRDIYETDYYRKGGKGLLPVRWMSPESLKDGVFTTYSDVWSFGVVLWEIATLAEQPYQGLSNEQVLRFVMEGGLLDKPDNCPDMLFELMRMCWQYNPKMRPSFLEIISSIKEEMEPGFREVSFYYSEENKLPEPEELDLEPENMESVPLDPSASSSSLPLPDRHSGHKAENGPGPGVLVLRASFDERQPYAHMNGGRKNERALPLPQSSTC

- Avg POC [1]: 102.5 POC
- Avg POC [2]: 105.5 POC
- Avg POC [3]: 78.5 POC
- Avg POC [4]: 105.5 POC
- Avg POC [5]: 103.5 POC
- Avg POC [6]: 102 POC
- Avg POC [7]: 109.5 POC
- Avg POC [8]: 102 POC
- Avg POC [9]: 115 POC
- Avg POC [10]: 95 POC
- Avg POC [11]: 99 POC
- Avg POC [12]: 82.5 POC
- Avg POC [13]: 100 POC
- Avg POC [14]: 106.5 POC
- Avg POC [15]: 106.5 POC
- Avg POC [16]: 98 POC
- Avg POC [17]: 128.5 POC
- Avg POC [18]: 110 POC
- Avg POC [19]: 125.5 POC
- Avg POC [20]: 111 POC
- Avg POC [21]: 98 POC
- Avg POC [22]: 98.5 POC
- Avg POC [23]: 104 POC
- Avg POC [24]: 99.5 POC
- Avg POC [25]: 107.5 POC
- Avg POC [26]: 96 POC
- Avg POC [27]: 102 POC
- Avg POC [28]: 105.5 POC
- Avg POC [29]: 102 POC
- Avg POC [30]: 101.5 POC
- Avg POC [31]: 105 POC
- Avg POC [32]: 107.5 POC
- Avg POC [33]: 147.5 POC
- Avg POC [34]: 115 POC
- Avg POC [35]: 97.5 POC
- Avg POC [36]: 98.5 POC
- Avg POC [37]: 105 POC
- Avg POC [38]: 91 POC
- Avg POC [39]: 106 POC
- Avg POC [40]: 2.5 POC
- Avg POC [41]: 106.5 POC
SMILES: COCCN1C[C@@H](NC(=O)Nc2c(C)c(-c3cnc(C)nc3)nn2-c2ccccc2)[C@H](c2cccc(F)c2)C1 [Compound 1, 1-((3S,4R)-4-(3-fluorophenyl)-1-(2-methoxyethyl)pyrrolidin-3-yl)-3-(4-methyl-3-(2-methylpyrimidin-5-yl)-1-phenyl-1H-pyrazol-5-yl)urea]
